Assay results: PubChem BioAssay (NCI)
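Following 48 hours of exposure in 96-well plates, responses at five concentrations were used to interpolate endpoints linearly. The concentration for 50% growth inhibition is given as GI50. TGI denotes the concentration required for complete inhibition of growth.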

Assays:
Test in all cases: inhibition of tumour cell growth, NCI panel, 48 h
SF-295 CNS = test system: SF-295 CNS
OVCAR-8 ovarian = test system: OVCAR-8 ovarian
ACHN renal = test system: ACHN renal
HCT-116 colon = test system: HCT-116 colon
DU-145 prostate = test system: DU-145 prostate
RXF 393 renal = test system: RXF 393 renal
T-47D breast = test system: T-47D breast
SW-620 colon = test system: SW-620 colon
HOP-92 NSCLC = test system: HOP-92 NSCLC
IGROV1 ovarian = test system: IGROV1 ovarian
BT-549 breast = test system: BT-549 breast
K-562 leukemia = test system: K-562 leukemia
786-0 renal = test system: 786-0 renal
A498 renal = test system: A498 renal
PC-3 prostate = test system: PC-3 prostate
SK-MEL-28 melanoma = test system: SK-MEL-28 melanoma
UACC-257 melanoma = test system: UACC-257 melanoma
SK-MEL-5 melanoma = test system: SK-MEL-5 melanoma
KM12 colon = test system: KM12 colon
UACC-62 melanoma = test system: UACC-62 melanoma
OVCAR-3 ovarian = test system: OVCAR-3 ovarian
MDA-MB-231 breast = test system: MDA-MB-231 breast
MDA-MB-435 = test system: MDA-MB-435
A549 NSCLC = test system: A549 NSCLC
UO-31 renal = test system: UO-31 renal
M14 melanoma = test system: M14 melanoma
OVCAR-5 ovarian = test system: OVCAR-5 ovarian
CAKI-1 renal = test system: CAKI-1 renal
NCI-H460 lung = test system: NCI-H460 lung
TK-10 renal = test system: TK-10 renal
NCI-H23 lung = test system: NCI-H23 lung
MOLT-4 leukemia = test system: MOLT-4 leukemia
COLO 205 colon = test system: COLO 205 colon
HCT-15 colon = test system: HCT-15 colon
SNB-19 CNS = test system: SNB-19 CNS
CCRF-CEM leukemia = test system: CCRF-CEM leukemia
SF-539 CNS = test system: SF-539 CNS
SF-268 CNS = test system: SF-268 CNS
HL-60(TB) leukemia = test system: HL-60(TB) leukemia
SK-OV-3 ovarian = test system: SK-OV-3 ovarian
HS 578T breast = test system: HS 578T breast
NCI-H226 lung = test system: NCI-H226 lung
HCC-2998 colon = test system: HCC-2998 colon
SN12C renal = test system: SN12C renal
MALME-3M melanoma = test system: MALME-3M melanoma
NCI/ADR-RES ovarian = test system: NCI/ADR-RES ovarian
HT29 colon = test system: HT29 colon
SK-MEL-2 melanoma = test system: SK-MEL-2 melanoma
SNB-75 CNS = test system: SNB-75 CNS
EKVX NSCLC = test system: EKVX NSCLC
NCI-H522 lung = test system: NCI-H522 lung
MCF7 breast = test system: MCF7 breast
HOP-62 NSCLC = test system: HOP-62 NSCLC
U251 CNS = test system: U251 CNS

## COC(=O)c1ccc(NC2=C/C(=N/S(=O)(=O)c3ccc(C(=O)O)cc3)c3ccccc3C2=O)cc1
SF-295 CNS
  GI50: 11.7 µM
  TGI: 26.9 µM
OVCAR-8 ovarian
  GI50: 3.2 µM
  TGI: 46.2 µM
ACHN renal
  GI50: 1.88 µM
  TGI: 4.19 µM
HCT-116 colon
  GI50: 2.81 µM
  TGI: 10.2 µM
DU-145 prostate
  GI50: 11.7 µM
  TGI: 24.7 µM
RXF 393 renal
  GI50: 8.1 µM
  TGI: 22.4 µM
T-47D breast
  GI50: 3.19 µM
  TGI: 26.8 µM
SW-620 colon
  GI50: 2.78 µM
  TGI: > 100 µM
HOP-92 NSCLC
  GI50: 3.71 µM
  TGI: 15.6 µM
IGROV1 ovarian
  GI50: 4.92 µM
  TGI: 20.8 µM
BT-549 breast
  GI50: 15 µM
  TGI: 32.6 µM
K-562 leukemia
  GI50: 3.19 µM
  TGI: > 100 µM
786-0 renal
  GI50: 10.9 µM
  TGI: 58.4 µM
A498 renal
  GI50: 22.9 µM
  TGI: 42.4 µM
PC-3 prostate
  GI50: 3.4 µM
  TGI: 25.3 µM
SK-MEL-28 melanoma
  GI50: 2.46 µM
  TGI: 5.89 µM
UACC-257 melanoma
  GI50: 2.06 µM
  TGI: 4.6 µM
SK-MEL-5 melanoma
  GI50: 3.18 µM
  TGI: 10.1 µM
KM12 colon
  GI50: 10.7 µM
  TGI: 25.3 µM
UACC-62 melanoma
  GI50: 2.08 µM
  TGI: 4.55 µM
OVCAR-3 ovarian
  GI50: 2.17 µM
  TGI: 5.94 µM
MDA-MB-231 breast
  GI50: 2.51 µM
  TGI: 8.1 µM
MDA-MB-435
  GI50: 1.95 µM
  TGI: 3.67 µM
A549 NSCLC
  GI50: 29.8 µM
  TGI: > 100 µM
UO-31 renal
  GI50: 2.94 µM
  TGI: 15.3 µM
M14 melanoma
  GI50: 5.7 µM
  TGI: 23.9 µM
OVCAR-5 ovarian
  GI50: 14 µM
  TGI: 33.4 µM
CAKI-1 renal
  GI50: 10 µM
  TGI: 23.1 µM
NCI-H460 lung
  GI50: 20.6 µM
  TGI: 50.8 µM
TK-10 renal
  GI50: 25.2 µM
  TGI: 42.8 µM
NCI-H23 lung
  GI50: 3.18 µM
  TGI: 18.2 µM
MOLT-4 leukemia
  GI50: 1.74 µM
  TGI: 4.47 µM
COLO 205 colon
  GI50: 17.7 µM
  TGI: 38.1 µM
HCT-15 colon
  GI50: 11 µM
  TGI: 35.5 µM
SNB-19 CNS
  GI50: 16.9 µM
  TGI: 33.2 µM
CCRF-CEM leukemia
  GI50: 3.21 µM
  TGI: > 100 µM
SF-539 CNS
  GI50: 1.79 µM
  TGI: 3.38 µM
SF-268 CNS
  GI50: 6.33 µM
  TGI: 37.5 µM
HL-60(TB) leukemia
  GI50: 2.55 µM
  TGI: 6.52 µM
SK-OV-3 ovarian
  GI50: 21 µM
  TGI: 44.5 µM
HS 578T breast
  GI50: 3.36 µM
  TGI: 48 µM
NCI-H226 lung
  GI50: 15.2 µM
  TGI: 34.6 µM
HCC-2998 colon
  GI50: 10.4 µM
  TGI: 27 µM
SN12C renal
  GI50: 2.13 µM
  TGI: 5.15 µM
MALME-3M melanoma
  GI50: 1.89 µM
  TGI: 3.52 µM
NCI/ADR-RES ovarian
  GI50: 3.06 µM
  TGI: 11.8 µM
HT29 colon
  GI50: 21.3 µM
  TGI: 47.4 µM
SK-MEL-2 melanoma
  GI50: 2.35 µM
  TGI: 6.51 µM
SNB-75 CNS
  GI50: 2.1 µM
  TGI: 10.1 µM
EKVX NSCLC
  GI50: 2.1 µM
  TGI: 5.83 µM
NCI-H522 lung
  GI50: 1.92 µM
  TGI: 4.76 µM
MCF7 breast
  GI50: 1.89 µM
  TGI: 4.4 µM
HOP-62 NSCLC
  GI50: 17.3 µM
  TGI: 38.3 µM
U251 CNS
  GI50: 4.01 µM
  TGI: 28.8 µM
